In this assay the test system is SARS-CoV-2. Briefly: microbe, parasite or virus in culture. The settings on record: Severe acute respiratory syndrome coronavirus 2, nCoV-2019 BetaCoV/Wuhan/WIV04/2019, Vero C1008.

For `O=C[C@H](C[C@@H]1CCNC1=O)NC(=O)[C@H](Cc1cccc(F)c1)NC(=O)c1cc2ccccc2[nH]1`, the response was half-maximal at 720 nM (EC50).

In general, EC50 refers to the concentration at which the effect is half-maximal.

For the origin of these results see ChEMBL document CHEMBL4706535, “The development of Coronavirus 3C-Like protease (3CL) inhibitors from 2010 to 2020” (Eur J Med Chem, 2020).
